Legend:
[1] = system: HCV replicons (NS3-NS5B regions of HCV type 1b) in Huh-7 luc/neo (Huh-Luc) cells; assay: Replicon assay (HCV RNA replication, luciferase read-out); format: cell-based; conditions: Hepatitis C virus, Huh-7, 72 h, incubation of three days, luciferase activity
Method: The in vitro antiviral activity against HCV of the compounds of formula (I) was tested in a cellular HCV replicon system based on Lohmann et al. (1999) Science 285:110-113, with the further modifications described by Krieger et al. (2001) Journal of Virology 75: 4614-4624, which is further exemplified in the examples section. This model, while not a complete infection model for HCV, is widely accepted as the most robust and efficient model of autonomous HCV RNA replication currently available. […] It will be appreciated that it is important to distinguish between compounds that specifically interfere with HCV functions from those that exert cytotoxic or cytostatic effects in the HCV replicon model, and as a consequence cause a decrease in HCV RNA or linked reporter enzyme concentration. […]
The replicon cells were plated in 384 well plates in the presence of the test and control compounds which were added in various concentrations. Following an incubation of three days, HCV replication was measured by assaying luciferase activity (using standard luciferase assay substrates and reagents and a Perkin Elmer ViewLux™ ultraHTS microplate imager). […] The inhibitory activity of the compound on luciferase activity was monitored on the Huh-Luc cells, enabling a dose-response curve for each test compound.

HCV NS3/4A protease = HCV NS3/4A protease (Hepatitis C virus genotype 1a, UniProt P27958); assay: Inhibition assay (enzymatic assay, depsipeptide substrate hydrolysis); format: biochemical; also: full-length NS3 protease 1 nM, 25 µM NS4A cofactor, 0.5 µM substrate
Method: [Landro, 1997 # Biochem 36 9340-9348]. […] The solutions were stored at −20° C. between measurements.
[Liu, 1999 Analytical Biochemistry 267 331-335].

HCV NS3/4A protease, sequence (P27958 1027-1657): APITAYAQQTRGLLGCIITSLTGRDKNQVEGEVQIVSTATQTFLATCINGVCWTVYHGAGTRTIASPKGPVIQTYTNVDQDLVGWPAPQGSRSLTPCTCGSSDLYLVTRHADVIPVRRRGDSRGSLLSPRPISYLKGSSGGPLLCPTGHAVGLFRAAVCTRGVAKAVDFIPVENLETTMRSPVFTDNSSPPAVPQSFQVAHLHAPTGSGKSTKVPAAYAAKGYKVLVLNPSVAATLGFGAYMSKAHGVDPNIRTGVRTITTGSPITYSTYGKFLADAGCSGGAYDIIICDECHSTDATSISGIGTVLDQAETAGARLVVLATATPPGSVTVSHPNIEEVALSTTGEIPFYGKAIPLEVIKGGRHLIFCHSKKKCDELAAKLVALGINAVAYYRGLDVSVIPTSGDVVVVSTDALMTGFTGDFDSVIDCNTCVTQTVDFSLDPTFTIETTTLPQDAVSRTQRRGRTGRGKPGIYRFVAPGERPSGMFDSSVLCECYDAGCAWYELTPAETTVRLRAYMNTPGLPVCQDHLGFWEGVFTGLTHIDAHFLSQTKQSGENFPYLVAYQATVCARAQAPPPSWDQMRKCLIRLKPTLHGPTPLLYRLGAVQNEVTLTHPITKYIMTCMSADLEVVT

CN1CCCC/C=C\[C@@H]2C[C@@]2(C(=O)O)NC(=O)[C@@H]2C[C@@H](n3nnc(-c4ccccc4)n3)C[C@H]2C1=O [Compound 9, 17-(5-phenyltetrazol-2-yl)-13-methyl-2,14-dioxo-3,13-diazatricyclo[13.3.0.0^4,6]octadec-7-ene-4-carboxylic acid]
EC50 [1]: > 10 µM
Ki (HCV NS3/4A protease): > 1000 nM

CN1CCCC/C=C\[C@@H]2C[C@@]2(C(=O)NS(=O)(=O)C2CC2)NC(=O)[C@@H]2C[C@@H](n3nnc(-c4ccccc4)n3)C[C@H]2C1=O [Compound 10, N-[17-(5-phenyltetrazol-2-yl)-13-methyl-2,14-dioxo-3,13-diazatricyclo[13.3.0.0^4,6]octadec-7-ene-4-carbonyl](cyclopropyl)sulfonamide]
EC50 [1]: 3.43 µM
Ki (HCV NS3/4A protease): 30 nM
